Assay results as given in paper PMC10900488, “Synthesis and Evaluation of (Bis)benzyltetrahydroisoquinoline Alkaloids as Antiparasitic Agents” (JACS Au, 2024).

System: L. infantum promastigotes
Assay: Antipromastigote assay (L. infantum), MTT colorimetric
Type: cell-based, Leishmania (L.) infantum
Settings: Leishmania infantum; ± SD; MTT, 48 h; read-out: L. infantum IC50 promastigotes
Procedure: (§1) Table 1 depicts the antileishmanial (L. infantum) activity evaluation performed against both the amastigote form (evaluated microscopically using an ex vivo intracellular model of mice macrophages) and the promastigote one (using an MTT colorimetric method).[32],[33] The cytotoxicity was evaluated against NCTC cells using an MTT colorimetric method and the selectivity index was determined using the ratio between the CC50 values (NCTC cells) and the IC50 values (amastigotes).[32] […] With respect to the substituents on the C ring, larger, hydrophobic groups conferred greater bioactivity (e.g., 9b–d), whereas small, hydrophilic groups such as a hydroxyl group afford modest to poor bioactivity.
(§2) Leishmania (L.) infantum (MHOM/BR/1972/LD) amastigotes were obtained from golden hamsters (Mesocricetus auratus) spleens following 60-70 days of infection via differential centrifugation. The Stauber method was used to determine the number of parasites.12 […]
Biological activity assays
Antipromastigote Assay (L. infantum)
L. infantum promastigotes (1 × 10^6 cells/well) were added to a 96-well plates. Treatment of the cells with selected compounds (serially diluted 0.14 to 200 μM) was performed in M199 medium supplemented with 0.25% hemin and 10% fetal bovine serum for 48 h at 24 °C. The MTT colorimetric assay was used to determine the activity (IC50) of the compounds. Miltefosine was used as a standard drug and untreated promastigotes were used as a negative control. The half inhibitory concentration (IC50) was determined from a sigmoidal regression of the concentration-response curves generated in GraphPadPrism7. […]

Row | Structure (SMILES) | IC50 [µM]
1 | COc1cc2c(cc1OC)[C@H](Cc1ccc(O)cc1)N(C)CC2 [(S)-10b, (+)-armepavine] | 36.2 ± 5.2
2 | COc1cc2c(cc1OC)[C@@H](Cc1ccc(O)c(Oc3ccc(C[C@H]4c5cc(OC)c(OC)cc5CCN4C)cc3)c1)N(C)CC2 [(S,R)-13] | 5.7 ± 1.3

Further lines, results first:

Row | IC50 [µM] | Structure (SMILES)
3 | 0.7 ± 0.1 | COc1ccc(COc2ccc(C[C@H]3c4cc(OC)c(OC)cc4CCN3C)cc2Oc2ccc(C[C@@H]3c4cc(OC)c(OC)cc4CCN3C)cc2)cc1 [(S,R)-12]
4 | 0.7 ± 0.01 | COc1cc2c(cc1OC)[C@H](Cc1ccc(Oc3cc(C[C@H]4c5cc(OC)c(OC)cc5CCN4C)ccc3OC)cc1)N(C)CC2 [(S,S)-11, (+)-O-methylthalibrine]
5 | 1.1 ± 0.5 | COc1ccc(COc2ccc(C[C@H]3c4cc(OC)c(OC)cc4CCN3C)cc2Oc2ccc(C[C@H]3c4cc(OC)c(OC)cc4CCN3C)cc2)cc1 [(S,S)-12]

Same assay, conditions: ± SD; MTT, 48 h

Row | L. infantum IC50 promastigotes | Structure (SMILES)
6 | submicromolar | COc1ccc(COc2ccc(C[C@H]3c4cc(OC)c(OC)cc4CCN3C)cc2Oc2ccc(C[C@@H]3c4cc(OC)c(OC)cc4CCN3C)cc2)cc1 [(S,R)-12]

System: L. infantum amastigotes
Assay: Antiamastigote assay (L. infantum), ex vivo intracellular model of mice macrophages, microscopy
Type: cell-based, Leishmania (L.) infantum
Settings: Leishmania infantum, Peritoneal macrophage, 96 h, ± SD, intracellular, peritoneal macrophages, read-out: L. infantum IC50 amastigotes
Procedure: as §1, §2
(§3) Peritoneal macrophages were obtained via washing the peritoneal cavity of BALB/c mice with 10% foetal calf serum supplemented RPMI-1640 medium (pH 7.2). The macrophages were maintained in a humidified incubator at 37 °C and with 5% CO2.
(§4) Biological activity assays […]
Antiamastigote Assay (L. infantum)
Peritoneal macrophages (1 × 10^5/well) were added to a 16-well slide chambers (NUNC) and incubated with 5% CO2 at 37 °C. The cells were subsequently infected with L. infantum amastigotes (10:1 amastigotes/macrophage) for 24 h. Treatment of the cells with selected compounds (serially diluted 1.2 to 150 μM) was performed in a humidified incubator for 96 h at 37 °C and with 5% CO2. Untreated cells were used as a negative control and miltefosine was used as a standard drug. The treated cells were fixed on slides with methanol, stained with Giemsa and observed under a light microscope.13 The infection index was used in order to determine the half inhibitory concentration (IC50) (no. infected macrophages × no. amastigotes / total no. […]

Row | Structure (SMILES) | IC50 [µM]
7 | COc1cc2c(cc1OC)[C@H](Cc1ccc(O)cc1)N(C)CC2 [(S)-10b, (+)-armepavine] | > 150
8 | COc1cc2c(cc1OC)[C@@H](Cc1ccc(O)c(Oc3ccc(C[C@H]4c5cc(OC)c(OC)cc5CCN4C)cc3)c1)N(C)CC2 [(S,R)-13] | 3.6 ± 0.3

Second part, the compound after the results:

Row | IC50 [µM] | Structure (SMILES)
9 | > 150 | COc1ccc(COc2ccc(C[C@H]3c4cc(OC)c(OC)cc4CCN3C)cc2Oc2ccc(C[C@@H]3c4cc(OC)c(OC)cc4CCN3C)cc2)cc1 [(S,R)-12]
10 | > 150 | COc1cc2c(cc1OC)[C@H](Cc1ccc(Oc3cc(C[C@H]4c5cc(OC)c(OC)cc5CCN4C)ccc3OC)cc1)N(C)CC2 [(S,S)-11, (+)-O-methylthalibrine]
11 | > 150 | COc1ccc(COc2ccc(C[C@H]3c4cc(OC)c(OC)cc4CCN3C)cc2Oc2ccc(C[C@H]3c4cc(OC)c(OC)cc4CCN3C)cc2)cc1 [(S,S)-12]

System: T. cruzi trypomastigotes
Assay: Antitrypomastigote assay (T. cruzi), resazurin
Type: cell-based, Trypanosoma (T.) cruzi
Settings: Trypanosoma cruzi, 24 h, ± SD, resazurin, read-out: T. cruzi IC50 trypomastigotes
Procedure: (§5) T. cruzi also assumes several cell morphologies during its lifecycle, which differ between the insect vector and mammalian host. In the latter environment, the parasite transitions between extracellular bloodstream trypomastigotes and intracellular amastigotes; both forms are clinically relevant, particularly during the acute stage of Chagas disease.[34] In this work, antitrypanosomal activity was tested against both the amastigote form (evaluated microscopically using an ex vivo intracellular model using mice macrophages) and the trypomastigote form (using the resazurin in vitro assay).[33],[35] […] In silico predictions of pharmacokinetic profiles were carried out using the SwissADME webtool (see the Supporting Information for details).[36] […]
(§6) […] Cultivation was performed in 2% fetal calf serum supplemented RPMI-1640 medium.
(§7) The trypomastigotes were maintained in a humidified incubator at 37 °C and with 5% CO2. […]
as §4
The half inhibitory concentration (IC50) was determined from a sigmoidal regression of the concentration-response curves generated in GraphPadPrism7. […]
Treatment of the cells with selected compounds (serially diluted 1.2 to 150 μM) was performed in a humidified incubator in RPMI 1640 medium for 24 h at 37 °C and with 5% CO2. Resazurin (0.011% in PBS) was added subsequently to verify parasite viability. Benznidazole was used as a standard drug. The optical density was determined at 570 nm using the FilterMax F5 (Molecular Devices). […]

Row | Structure (SMILES) | IC50 [µM]
12 | COc1cc2c(cc1OC)[C@H](Cc1ccc(O)cc1)N(C)CC2 [(S)-10b, (+)-armepavine] | 124 ± 2.3
13 | COc1cc2c(cc1OC)[C@@H](Cc1ccc(O)c(Oc3ccc(C[C@H]4c5cc(OC)c(OC)cc5CCN4C)cc3)c1)N(C)CC2 [(S,R)-13] | 4.2 ± 4.8

Now from value to compound:

Row | IC50 [µM] | Structure (SMILES)
14 | 1.7 ± 0.3 | COc1ccc(COc2ccc(C[C@H]3c4cc(OC)c(OC)cc4CCN3C)cc2Oc2ccc(C[C@@H]3c4cc(OC)c(OC)cc4CCN3C)cc2)cc1 [(S,R)-12]
15 | 3.7 ± 3.6 | COc1cc2c(cc1OC)[C@H](Cc1ccc(Oc3cc(C[C@H]4c5cc(OC)c(OC)cc5CCN4C)ccc3OC)cc1)N(C)CC2 [(S,S)-11, (+)-O-methylthalibrine]
16 | 5.6 ± 2.1 | COc1ccc(COc2ccc(C[C@H]3c4cc(OC)c(OC)cc4CCN3C)cc2Oc2ccc(C[C@H]3c4cc(OC)c(OC)cc4CCN3C)cc2)cc1 [(S,S)-12]

System: T. cruzi amastigotes
Assay: Antiamastigote assay (T. cruzi), ex vivo intracellular model using mice macrophages, microscopy
Type: cell-based, Trypanosoma (T.) cruzi
Settings: Trypanosoma cruzi, Peritoneal macrophage, 48 h, ± SD, read-out: T. cruzi IC50 amastigotes
Procedure: as §5, §6, §7, §3, §4
Peritoneal macrophages (1 × 10^5 cells/well) obtained from the peritoneal cavity of BALB/C mice were added to 16-well chambers (NUNC, Thermo Fischer Scientific). The cells were infected with trypomastigotes (10:1 parasites/macrophage) for 2 h. Then treatment of the infected macrophages with selected compounds (serially diluted 1.2 to 100 μM) was performed in a humidified incubator for 48 h at 37 °C and with 5% CO2. The treated cells were fixed on slides using methanol, stained with Giemsa and observed under a light microscope (EVOS M5000, Thermo, USA) with digital image equipment. The infection index was used in order to determine the half inhibitory concentration (IC50) (no. infected macrophages × no. amastigotes / total no.

Row | Structure (SMILES) | IC50 [µM]
17 | COc1cc2c(cc1OC)[C@H](Cc1ccc(O)cc1)N(C)CC2 [(S)-10b, (+)-armepavine] | > 100
18 | COc1cc2c(cc1OC)[C@@H](Cc1ccc(O)c(Oc3ccc(C[C@H]4c5cc(OC)c(OC)cc5CCN4C)cc3)c1)N(C)CC2 [(S,R)-13] | 4.4 ± 0.4

Results, then the compound that gave them:

Row | IC50 [µM] | Structure (SMILES)
19 | > 100 | COc1ccc(COc2ccc(C[C@H]3c4cc(OC)c(OC)cc4CCN3C)cc2Oc2ccc(C[C@@H]3c4cc(OC)c(OC)cc4CCN3C)cc2)cc1 [(S,R)-12]
20 | > 100 | COc1cc2c(cc1OC)[C@H](Cc1ccc(Oc3cc(C[C@H]4c5cc(OC)c(OC)cc5CCN4C)ccc3OC)cc1)N(C)CC2 [(S,S)-11, (+)-O-methylthalibrine]
21 | > 100 | COc1ccc(COc2ccc(C[C@H]3c4cc(OC)c(OC)cc4CCN3C)cc2Oc2ccc(C[C@H]3c4cc(OC)c(OC)cc4CCN3C)cc2)cc1 [(S,S)-12]

System: not listed separately
Assay: Mammalian toxicity, MTT colorimetric
Type: cell-based, murine
Settings: mouse
Procedure: as §1, with “bioactivity. […]” for “bioactivity.”
Murine conjunctive fibroblasts NCTC clone 929 (ATCC) were maintained in 10% foetal calf serum supplemented RPMI-1640 medium (pH 7.2) at 37 °C in a humidified incubator with 5% CO2. […]
as §4
NCTC cells (6 × 10^4/well) were added to a 96-well plate. Treatments of the cells with selected compounds (serially diluted 1.5 to 200 μM) was performed in a humidified incubator for 96 h at 37 °C and with 5% CO2.
The MTT colorimetric method was used to determine the 50% cytotoxic concentration (CC50) and the selectivity index (CC50 against NCTC cells/IC50 against amastigotes).15 […]
[…] At 6 h and 24 h post-treatment, a 1 mL aliquot was taken for imaging. The cell cycle experiment was preformed twice independently.
Generation of mNG::RAD51 tagged cell line
The single-stranded DNA-binding protein RAD51, associated with DNA Repair, LmxM.28.0550 was tagged with endogenous fluorescent protein mNeonGreen (mNG) at the N-terminus. […]
Primers for constructs and sgRNA were designed using LeishGEdit (http://www.leishGEdit.net).
PCR was at 94 °C for 5 min, followed by 35 cycles at 94 °C (15 sec), 65 °C (15 sec), 72 °C (2 min) then finally 72 °C (1 min).
PCR was at 94 °C for 30 sec, followed by 30 cycles at 94 °C (30 sec), 60 °C (30 sec), 72 °C (30 sec) then finally 72 °C (2 min). […] Combined PCR products were precipitated for 20 min with 10 μL 3M sodium acetate and 300 μL EtOH, pelleted at 14000 min-1 30 min, washed once with 70% EtOH, re-pelleted and resuspended in […]
Promastigotes (1 × 10^7 cells) were combined with PCR products and transfected using the Amaxa Nucleofector II.17 Electroporation was performed using 2 mm cuvettes on the X-100 program, followed by immediate suspension in pre-warmed M199 medium. Successful transfectants were selected with 20 μg mL-1 Puromycin 15 h after transfection, taking 4 days to reach stable growth in culture. mNG::RAD51 nuclear foci studies mNG::RAD51 promastigotes (5 × 10^6 cells mL-1) in 7 mL of M199 medium were treated with 7 μL o f compound (S)-9a or (S)-9b dissolved in DMSO giving a final concentration of 50 μM. Phleomycin was used as a positive control at a final concentration of 25 μg mL-1. At T = 0, 15, 30, 60 min, and 2, 6, 24 h post-treatment a 0.8 mL aliquot was taken for imaging.

Row | Structure (SMILES) | CC50 at 96 h [µM]
22 | COc1cc2c(cc1OC)[C@H](Cc1ccc(O)cc1)N(C)CC2 [(S)-10b, (+)-armepavine] | > 200
23 | COc1ccc(COc2ccc(C[C@H]3c4cc(OC)c(OC)cc4CCN3C)cc2Oc2ccc(C[C@@H]3c4cc(OC)c(OC)cc4CCN3C)cc2)cc1 [(S,R)-12] | 4.7 ± 1.7
24 | COc1cc2c(cc1OC)[C@@H](Cc1ccc(O)c(Oc3ccc(C[C@H]4c5cc(OC)c(OC)cc5CCN4C)cc3)c1)N(C)CC2 [(S,R)-13] | 15.6 ± 1.6
25 | COc1cc2c(cc1OC)[C@H](Cc1ccc(Oc3cc(C[C@H]4c5cc(OC)c(OC)cc5CCN4C)ccc3OC)cc1)N(C)CC2 [(S,S)-11, (+)-O-methylthalibrine] | 11.4 ± 0.2
26 | COc1ccc(COc2ccc(C[C@H]3c4cc(OC)c(OC)cc4CCN3C)cc2Oc2ccc(C[C@H]3c4cc(OC)c(OC)cc4CCN3C)cc2)cc1 [(S,S)-12] | 20.8 ± 5.4
